Earlier results on one compound are cited in patent publication US20050154020A1, “4-Aryl piperidines” (Synaptic Pharmaceutical Corporation, priority 2004, published 2005).

Data set [1] has as its target T1, MCH1 (Rattus norvegicus, UniProt P97639).
T1 construct: from tissue; host or cells: whole living rat (in vivo behavioural model)

In data set [2] the target is T1, MCH1. The source holds these as a separate data set.
Data set [3] concerns the target T2, MCH1 (Cavia porcellus, UniProt H0VKT7).
T2 construct: from tissue; host or cells: whole living guinea pig (in vivo behavioural model)

T1 sequence (P97639 whole entry): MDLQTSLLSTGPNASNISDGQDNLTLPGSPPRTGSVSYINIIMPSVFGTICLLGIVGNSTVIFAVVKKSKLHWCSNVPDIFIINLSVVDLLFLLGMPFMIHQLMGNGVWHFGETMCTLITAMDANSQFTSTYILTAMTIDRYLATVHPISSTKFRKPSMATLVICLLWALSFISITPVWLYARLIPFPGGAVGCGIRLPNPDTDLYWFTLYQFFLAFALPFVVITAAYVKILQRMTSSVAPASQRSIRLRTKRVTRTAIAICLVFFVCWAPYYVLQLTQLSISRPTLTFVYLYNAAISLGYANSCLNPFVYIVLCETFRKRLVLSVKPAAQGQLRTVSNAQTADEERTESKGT
T2 sequence (H0VKT7 1-355): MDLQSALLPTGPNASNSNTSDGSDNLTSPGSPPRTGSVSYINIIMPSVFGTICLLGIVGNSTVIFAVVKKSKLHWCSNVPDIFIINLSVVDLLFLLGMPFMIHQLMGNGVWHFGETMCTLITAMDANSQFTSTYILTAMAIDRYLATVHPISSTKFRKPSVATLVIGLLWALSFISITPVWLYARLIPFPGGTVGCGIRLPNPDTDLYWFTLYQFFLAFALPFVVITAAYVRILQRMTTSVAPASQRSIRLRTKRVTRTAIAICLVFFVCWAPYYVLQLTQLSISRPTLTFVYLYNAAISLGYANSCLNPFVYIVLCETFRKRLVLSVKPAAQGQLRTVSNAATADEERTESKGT

Regarding `COCC1=C(C(=O)OC)[C@H](c2ccc(F)c(F)c2)N(C(=O)NCCCN2CCC(c3cccc(NC(C)=O)c3)CC2)C(=O)N1` [SNAP-7941], the “effect in rat forced-swim test (model of depression/anxiety)” value in data set [1] is “effects similar to clinically used antidepressants and anxiolytics”. Moreover, the “effect in rat social interaction test (model of depression/anxiety)” value in data set [2] was “effects similar to clinically used antidepressants and anxiolytics”. Besides, the “effect in guinea pig maternal-separation vocalization test (model of depression/anxiety)” value in data set [3] is “effects similar to clinically used antidepressants and anxiolytics”.
